Experimental data reported in patent publication US20100313310A1, “METHOD FOR IMPROVED UTILIZATION OF THE PRODUCTION POTENTIAL OF TRANSGENIC PLANTS” (priority 2006, published 2010).

Key:
[1] = test system: armyworm (Spodoptera frugiperda); test: Spray treatment of transgenic maize lines against armyworm, kill in %, Colby synergy; format: in vivo; settings: spirotetramate at 100 ppm by spray where applied
From the text: (§1) This is based on the following calculation base and assumption (“Colby formula”): […]
(§2) If • X is the kill rate, expressed in % of the untreated and not transgenically modified control, when employing the active compound A at an application rate of m g/ha or at a concentration of m ppm, • Y is the kill rate, expressed in % of the untreated and not transgenically modified control, when using a transgenic plant and • E is the kill rate, expressed in % of the untreated and not transgenically modified control, when employing active compound A and using a transgenically modified plant, the application rate being m and n g/ha or the concentration being m and n ppm, then
(§3) If the actual kill rate (i.e. the activity observed) is higher than the calculated one, the combination of active compound treatment and transgenically modified plant is superadditive in its kill, i.e. a synergistic effect between the active compound treatment and the use of a transgenic plant is present. In this case, the actually observed kill rate must thus be higher than the value calculated using the formula above for the kill rate (E). […]
(§4) After a desired period of time, the kill in % is determined by counting the animals. […]

[2] = test system: cotton aphid (Aphis gossypii); test: Spray treatment of transgenic cotton (line DP444 BG/RR) populated by cotton aphid, kill in %, Colby synergy; format: in vivo; settings: spirotetramate at 100 ppm by spray where applied
From the text: as §1, §2, §3, §4

[3] = test system: armyworm (Spodoptera exigua); test: Spray treatment of transgenic maize lines against larvae of the armyworm, kill in %, Colby synergy; format: in vivo; settings: spirotetramate at 100 ppm by spray where applied
From the text: as §1, §2, §3, §4

Compound | melting point [°C] | further results
COC1CCC2(CC1)NC(=O)C(c1cc(C)ccc1C)=C2O (stereo not drawn) | > 220 | 
COC1CCC2(CC1)NC(=O)C(c1c(C)ccc(Br)c1C)=C2O (stereo not drawn) | > 220 | 
CCOC(=O)OC1=C(c2cc(C)c(Cl)cc2C)C(=O)NC12CCC(OC)CC2 (stereo not drawn) | 162 | 
spirotetramate |  | Kill in % after 1d (observed) ([1]; after 1 d): 0%; Kill in % after 4d (observed) ([1]; after 4 d): 60%; Kill in % after 4d (observed) [2]: 35%; Kill in % after 4d (observed) [3]: 10%

Continued, in another order:

melting point [°C] | Compound | further results
219 | COC1CCC2(CC1)NC(=O)C(c1c(C)ccc(Cl)c1C)=C2O (stereo not drawn) | 
> 220 | COC1CCC2(CC1)NC(=O)C(c1c(C)cc(C)c(C)c1C)=C2O (stereo not drawn) | 
